In patent US20100099676A1 (SHIONOGI & CO., LTD., priority 2006, published 2010):

Assays:
Experiment in all cases: Enzyme inhibiting activity of MMPs, fluorogenic peptide substrate
Assay type in all cases: biochemical
MMP-2 = molecular target: T1, MMP-2 (Homo sapiens, UniProt P08253); details: substrate MOCAc-Pro-Leu-Gly-Leu-A2Pr(DNP)-Ala-Arg-NH2, fluorescent intensity
T1 construct: purchased Calbiochem (EMD/MERCK Biosciences)
T1 sequence (P08253 110-660): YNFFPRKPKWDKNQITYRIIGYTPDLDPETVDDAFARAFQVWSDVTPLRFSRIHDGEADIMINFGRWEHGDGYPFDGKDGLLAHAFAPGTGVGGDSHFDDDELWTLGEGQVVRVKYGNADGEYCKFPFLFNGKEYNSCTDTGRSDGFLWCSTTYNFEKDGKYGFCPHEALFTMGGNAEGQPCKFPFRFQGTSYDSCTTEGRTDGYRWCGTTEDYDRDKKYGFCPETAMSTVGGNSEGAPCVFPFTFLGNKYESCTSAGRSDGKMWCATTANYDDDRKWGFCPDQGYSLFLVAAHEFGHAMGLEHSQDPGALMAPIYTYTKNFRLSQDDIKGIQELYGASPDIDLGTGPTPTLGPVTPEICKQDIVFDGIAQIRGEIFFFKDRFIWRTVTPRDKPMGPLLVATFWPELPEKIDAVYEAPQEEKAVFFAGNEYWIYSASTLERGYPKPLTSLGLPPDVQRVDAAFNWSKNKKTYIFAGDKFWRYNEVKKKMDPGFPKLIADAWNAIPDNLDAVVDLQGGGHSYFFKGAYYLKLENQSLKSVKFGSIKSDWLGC
Summary of the method: (§1)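 Recombinant human enzymes with the fluorogenic substrate MOCAc-Pro-Leu-Gly-Leu-A2Pr(DNP)-Ala-Arg-NH2. Fluorescence was read for enzyme+substrate±inhibitor and substrate±inhibitor blanks.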

MMP-9 = molecular target: T2, MMP-9 (Homo sapiens, UniProt P14780); details: substrate MOCAc-Pro-Leu-Gly-Leu-A2Pr(DNP)-Ala-Arg-NH2, fluorescent intensity
T2 construct: purchased Calbiochem (EMD/MERCK Biosciences)
T2 sequence (P14780 94-707): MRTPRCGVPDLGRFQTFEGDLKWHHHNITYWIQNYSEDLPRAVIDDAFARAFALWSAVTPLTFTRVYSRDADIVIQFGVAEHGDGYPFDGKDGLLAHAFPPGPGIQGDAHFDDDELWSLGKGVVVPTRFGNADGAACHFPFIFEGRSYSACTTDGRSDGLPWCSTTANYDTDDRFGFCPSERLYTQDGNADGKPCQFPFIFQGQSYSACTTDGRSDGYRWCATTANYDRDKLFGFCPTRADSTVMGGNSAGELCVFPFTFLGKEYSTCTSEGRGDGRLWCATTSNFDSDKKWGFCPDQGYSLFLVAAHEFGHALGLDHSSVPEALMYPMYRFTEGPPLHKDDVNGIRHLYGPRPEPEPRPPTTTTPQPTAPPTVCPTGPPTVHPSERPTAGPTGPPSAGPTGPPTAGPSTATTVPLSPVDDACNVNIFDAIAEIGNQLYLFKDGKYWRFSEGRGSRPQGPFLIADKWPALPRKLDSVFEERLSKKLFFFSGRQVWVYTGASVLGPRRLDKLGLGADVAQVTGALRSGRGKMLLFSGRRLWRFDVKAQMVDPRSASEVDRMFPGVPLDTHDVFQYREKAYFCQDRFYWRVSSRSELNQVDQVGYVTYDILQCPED
Summary of the method: as §1

MMP-13 = molecular target: T3, MMP-13 (Homo sapiens, UniProt P45452); details: APMA-activated proenzyme; substrate MOCAc-Pro-Leu-Gly-Leu-A2Pr(DNP)-Ala-Arg-NH2, fluorescent intensity; read-out: IC50 MMP-13
T3 construct: purchased Calbiochem (EMD/MERCK Biosciences)
Summary of the method: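 Pro-MMP-13 was activated with 1 mM APMA at 37° C for 2 h in 50 mM Tris-HCl pH 7.6, 0.3 M NaCl, 10 mM CaCl2, 0.005% Brij35. Activity was read by fluorescence using MOCAc-Pro-Leu-Gly-Leu-A2Pr(DNP)-Ala-Arg-NH2 substrate, with enzyme and inhibitor blank corrections. IC50 is the concentration giving 50% inhibition.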

Row | Structure (SMILES) | IC50 (MMP-2) | IC50 (MMP-9) | IC50 (MMP-13)
1 | Cc1cc(C(=O)NC(C)C)c2cc(C#Cc3ccc(N4CCN(S(=O)(=O)N[C@H](C)C(=O)O)CC4)cc3)ccc2n1 [Compound I-115, (R)-2-{4-[4-(4-isopropylcarbamoyl-2-methylquinolin-6-ylethynyl)-phenyl]-piperazine-1-sulfonylamino}-proponic acid] | 1000 to 10000 nM | > 10000 nM | 12 nM
2 | C[C@@H](NS(=O)(=O)N1CCN(c2ccc(C#Cc3nc(-c4cccc(C(=O)NCc5ccccc5)c4)cs3)cc2)CC1)C(=O)O [Compound V-14, (R)-2-(4-{4-[4-(3-benzylcarbamoylphenyl)-thiazol-2-ylethynyl]-phenyl}-piperazine-1-sulfonylamino)-proponic acid] | 1000 to 10000 nM | > 10000 nM | 6 nM
3 | C[C@@H](NS(=O)(=O)N1CCN(c2ccc(C#Cc3ccnc(C(=O)NCc4ccc(Cl)cc4)c3)cc2)CC1)C(=O)O [III-1, (R)-2-(4-{4-[2-(4-chrolobenzylcarbamoyl)-pyridin-4-ylethynyl]-phenyl}-piperazine-1-sulfonylamino)-proponic acid] | 1000 to 10000 nM | > 10000 nM | 3 nM
4 | C[C@@H](NS(=O)(=O)N1CCN(c2ccc(C#Cc3ccc4c(c3)C(=O)N(Cc3ccccc3)CCN4C)cc2)CC1)C(=O)O [Compound V-52, (R)-2-{4-[4-(4-benzyl1-methyl-5-oxo-2,3,4,5-tetrahydro1H-benzo[e][1,4]diazepin-7-ylethynyl)-phenyl]-piperazine-1-sulfonylamino}-proponic acid] | 1000 to 10000 nM | 1000 to 10000 nM | 12 nM
5 | CC(C)[C@@H](NS(=O)(=O)N1CCN(c2ccc(C#Cc3ccc4ncn(Cc5ccc(F)cc5)c(=O)c4c3)cc2)CC1)C(=O)O [Compound V-59, (R)-2-(4-{4-[3-(4-fluorobenzyl)-4-oxo-3,4-dihydroquinazolin-6-ylethynyl]-phenyl}-piperazine-1-sulfonylamino)-3-methylbutanoic acid] | 1000 to 10000 nM | > 10000 nM | 10 nM
6 | CC(C)[C@@H](NS(=O)(=O)N1CCN(c2ccc(C#Cc3ccnc(C(=O)NCc4ccc(Cl)cc4)c3)cc2)CC1)C(=O)O [III-144, (R)-2-(4-{4-[2-(4-chrolobenzylcarbamoyl)-pyridin-4-ylethynyl]-phenyl}-piperazine-1-sulfonylamino)-3-methylbutanoic acid] | 1000 to 10000 nM | > 10000 nM | 10 nM
7 | CC(=O)Nc1cccc(-c2csc(C#Cc3ccc(N4CCN(S(=O)(=O)N[C@@H](C(=O)O)C(C)C)CC4)cc3)n2)c1 [Compound V-86, (R)-2-(4-{4-[4-(3-acetylaminophenyl)-thiazol-2-ylethynyl]-phenyl}-piperazine-1-sulfonylamino)-3-methylbutanoic acid] | 1000 to 10000 nM | > 10000 nM | 12 nM
8 | C[C@@H](NS(=O)(=O)N1CCN(c2ccc(C#Cc3ccc4c(c3)c(=O)n(Cc3ccc(F)cc3)c(=O)n4C)cc2)CC1)C(=O)O [Compound V-71, (R)-2-(4-{4-[3-(4-fluorobenzyl)-1-methyl-2,4-dioxo-1,2,3,4-tetrahydroquinazolin-6-ylethynyl]-phenyl}-piperazine-1-sulfonylamino)-proponic acid] | > 10000 nM | > 10000 nM | 8 nM
9 | CC(C)[C@@H](NS(=O)(=O)N1CCN(c2ccc(C#Cc3nc(-c4cccc(OCc5ccc(C(N)=O)cc5)c4)cs3)cc2)CC1)C(=O)O [Compound V-78, (R)-2-[4-(4-{4-[3-(4-carbamoylbenzyloxy)-phenyl]-thiazol-2-ylethynyl}-phenyl)-piperazine-1-sulfonylamino]-3-methylbutanoic acid] | > 10000 nM | > 10000 nM | 4 nM

Continued, values first:

Row | IC50 (MMP-2) | IC50 (MMP-9) | IC50 (MMP-13) | Structure (SMILES)
10 | > 10000 nM | > 10000 nM | 17 nM | CC(C)[C@@H](NS(=O)(=O)N1CCN(c2ccc(C#Cc3ccnc(C(=O)NCc4ccc(Br)cc4)c3)cc2)CC1)C(=O)O [III-216, (R)-2-(4-{4-[2-(4-bromobenzylcarbamoyl)-pyridin-4-ylethynyl]-phenyl}-piperazine-1-sulfonylamino)-3-methylbutanoic acid]
11 | 1000 to 10000 nM | > 10000 nM | 8 nM | CC(C)[C@@H](NS(=O)(=O)N1CCN(c2ccc(C#Cc3ccnc(C(=O)NCc4ccc(F)cc4)c3)cc2)CC1)C(=O)O [III-152, (R)-2-(4-{4-[2-(4-fluorobenzylcarbamoyl)-pyridin-4-ylethynyl]-phenyl}-piperazine-1-sulfonylamino)-3-methylbutanoic acid]
12 | > 10000 nM | > 10000 nM | 4 nM | C[C@@H](NS(=O)(=O)N1CCN(c2ccc(C#Cc3cccc(-c4ncc(-c5ccc(F)cc5)o4)c3)cc2)CC1)C(=O)O [III-12, (R)-2-[4-(4-{3-[5-(4-fluorophenyl)-oxazol-2-yl]-phenylethynyl}-phenyl)-piperazine-1-sulfonylamino]-proponic acid]
13 | 1000 to 10000 nM | > 10000 nM | 7 nM | CC(C)[C@@H](NS(=O)(=O)N1CCN(c2ccc(C#Cc3ccnc(C(=O)NCc4ccc(N5CCCCC5)cc4)c3)cc2)CC1)C(=O)O [III-171, (R)-3-methyl-2-(4-{4-[2-(4-piperidin-1-ylbenzylcarbamoyl)-pyridin-4-ylethynyl]-phenyl}-piperazine-1-sulfonylamino)-butanoic acid]
14 | > 10000 nM | > 10000 nM | 23 nM | COc1ccc(Cn2c(=O)[nH]c3ccc(C#Cc4ccc(N5CCN(S(=O)(=O)N[C@@H](C(=O)O)C(C)C)CC5)cc4)cc3c2=O)cc1 [III-73, (R)-2-(4-{4-[3-(4-methoxybenzyl)-2,4-dioxo-1,2,3,4-tetrahydroquinazolin-6-ylethynyl]-phenyl}-piperazine-1-sulfonylamino)-3-methylbutanoic acid]
15 | 100 to 1000 nM | > 10000 nM | 1 nM | CC(C)[C@@H](NS(=O)(=O)N1CCN(c2ccc(C#Cc3ccnc(C(=O)NCc4ccc(S(C)(=O)=O)cc4)c3)cc2)CC1)C(=O)O [III-206, (R)-2-(4-{4-[2-(4-methanesulfonylbenzylcarbamoyl)-pyridin-4-ylethynyl]-phenyl}-piperazine-1-sulfonylamino)-3-methylbutanoic acid]
16 | > 10000 nM | > 10000 nM | 17 nM | CC(C)[C@@H](NS(=O)(=O)N1CCN(c2ccc(C#Cc3ccnc(C(=O)NCc4ccc(F)c(Br)c4)c3)cc2)CC1)C(=O)O [III-210, (R)-2-(4-{4-[2-(3-bromo4-fluorobenzylcarbamoyl)-pyridin-4-ylethynyl]-phenyl}-piperazine-1-sulfonylamino)-3-methylbutanoic acid]
17 | 1000 to 10000 nM | > 10000 nM | 9 nM | COCCOc1ccc(C#Cc2ccc(N3CCN(S(=O)(=O)N[C@@H](C(=O)O)C(C)C)CC3)cc2)cc1C(=O)NCC#N [III-2, (R)-2-(4-{4-[3-(cyanomethylcarbamoyl)-4-(2-methoxyethoxy)-phenylethynyl]-phenyl}-piperazine-1-sulfonylamino)-3-methylbutanoic acid]
18 | > 10000 nM | > 10000 nM | 23 nM | CC(C)[C@@H](NS(=O)(=O)N1CCN(c2ccc(C#Cc3ccnc(C(=O)NCc4cccc(I)c4)c3)cc2)CC1)C(=O)O [III-226, (R)-2-(4-{4-[2-(3-iodobenzylcarbamoyl)-pyridin-4-ylethynyl]-phenyl}-piperazine-1-sulfonylamino)-3-methylbutanoic acid]
19 | 1000 to 10000 nM | > 10000 nM | 7 nM | Cc1ccc(CNC(=O)c2cc(C#Cc3ccc(N4CCN(S(=O)(=O)N[C@@H](C(=O)O)C(C)C)CC4)cc3)ccn2)cc1F [III-230, (R)-2-(4-{4-[2-(3-fluoro-4-methylbenzylcarbamoyl)-pyridin-4-ylethynyl]-phenyl}-piperazine-1-sulfonylamino)-3-methylbutanoic acid]
20 | 1000 to 10000 nM | > 10000 nM | 7 nM | COc1ccc(CNC(=O)c2cc(C#Cc3ccc(N4CCN(S(=O)(=O)N[C@@H](C(=O)O)C(C)C)CC4)cc3)ccn2)cc1 [III-150, (R)-2-(4-{4-[2-(4-methoxybenzylcarbamoyl)-pyridin-4-ylethynyl]-phenyl}-piperazine-1-sulfonylamino)-3-methylbutanoic acid]
21 | 1000 to 10000 nM | > 10000 nM | 3 nM | CC(C)[C@@H](NS(=O)(=O)N1CCN(c2ccc(C#Cc3ccc4ccn(Cc5ccncc5)c(=O)c4c3)cc2)CC1)C(=O)O [III-169, (R)-3-methyl-2-{4-[4-(1-oxo-2-pyridin-4-ylmethyl-1,2-dihydroisoquinolin-7-ylethynyl)-phenyl]-piperazine-1-sulfonylamino}-butanoic acid]
